# What was measured:
# [1] = test system: H69 (human small cell lung cancer) tumors; assay: Histology, fraction of necrosis in H69 tumors; assay type: in vivo, NMRI-Foxn1^nu mice
# Procedure: At an average tumor size of 6.1 mm (range 5.8-6.6 mm) in largest diameter, the tumors are treated with 168 mM CaCl2 injection and electroporation as described in Example 3. Tumors are removed at skin level before treatment, 2 hours, 1, 2 and 6 days after treatment, fixated in formalin (10% neutrally buffered) and paraffin embedded. Subsequently, tissue sections with a thickness of 3 μm are HE-stained according to the routine procedure of the department. The fraction of necrosis within the tumor is estimated from HE-sections by stereological point counting using a light microscope, evaluated by a pathologist, blinded with respect to treatment status.
# The difference in fraction of necrosis is assessed using one-way ANOVA with post least-squares-means test with Bonferroni correction for multiple comparisons.
# [2] = test system: LPB (murine sarcoma) tumors; assay: Fraction of necrosis after calcium electroporation, LPB tumors; assay type: in vivo, NMRI-Foxn1^nu mice
# Procedure: LPB, a murine sarcoma cell line, B16, a murine malignant melanoma cell line, MDA-MB231, human a breast cancer cell line, HT29, a human colon cancer cell line, and SW780, a human bladder cancer cell line were used for the in vivo experiment. The cells were tested by rapid MAP27 panel (Taconic, Hudson N.Y.) before use without signs of infection. 2×10^5 cells (B16), 8×10^5 cells (LPB), 2.5×10^6 cells (MDA-MB231), and 5×10^6 cells (HT29 and SW780) in 100 μl PBS were injected subcutaneously in the flank of NMRI-Foxn1^nu mice (Harlan, Indianapolis, Ind.) that were 9-11 weeks old. Mice were randomised at a tumor volume above 85 mm^3 and tumors were treated with injection of isotonic calcium-chloride solution (168 mM CaCI2) and electroporation (8 pulses of 1.0 kv/cm for 100 μs and a frequency of 1 Hz) using a 6 mm plate electrode and a square wave electroporator (CLINIPORATOR®, IGEA, Modena, Italy). Tumor volume was calculated as ab^2n/6, where a is the largest diameter and b is the largest diameter perpendicular to a. The injected volume was half of the tumor volume. […] The fraction of necrosis within the tumor was estimated from HE-sections by stereological point counting using a light microscope, evaluated by a pathologist, blinded with respect to treatment status.
# The difference in fraction of necrosis at different time after treatment was assessed using student's t-test.
# [3] = test system: N32 (rat brain glioma) tumors; assay: Calcium electroporation of brain tumor, MRI and H&E; assay type: in vivo, Sprague Dawley rats
# Procedure: N32, a rat brain glioma derived tumor cell line, and 7-11 weeks old Sprague Dawley male rats (Taconic, Hudson N.Y.) were used for the in vivo experiments. The cells were tested by rapid MAP27 panel (Taconic, Hudson N.Y.) before use without signs of infection. Inoculation of 3,000 N32 cells in 5 μl at the stereotaxic coordinates; X=2, Y=1, Z=−4 was performed and verification of tumor by MRI prior to treatment was performed two weeks after inoculation. HYPNORM™-DORMICUM™ (fentanyl/fluanisone/midazolam; VetaPharma, Leeds, U K and Roche, Basel, Switzerland) was used for anesthesia complemented with RIMADYL® (Carprofen) (Pfizer ApS, Ballerup, Denmark) for pain relief after surgery. Tumors were treated two weeks after inoculation with 1) injection of 14 μl calcium-chloride solution (168 mM) and electroporation (32 pulses of 100V for 100 μs and a frequency of 1 Hz) using an 8-electrode device developed for treatment of brain tumors, a square wave electroporator (CLINIPORATOR®, IGEA, Modena, Italy), and a switch box (Sonion), or 2) injection of 14 μl calcium-chloride solution (168 mM) and placement of electrodes but no pulses applied. MRI was performed at day 1, 3, 6, and 8 after treatment. […] The extend of necrosis, the presence of macrophages and the influence on neurons and glia cells were evaluated by H&E, PAS, NF, and GFAP staining, respectively.
smiles,measurement,setting,value
[Ca+2].[Cl-].[Cl-] [calcium chloride],"fraction of necrosis in tumors, course","[1]; 168 mM CaCl2 with electroporation, 2 hours to 6 days",progressive necrosis
same,fraction of necrosis in tumors,[1]; 6 days post treatment,complete
same,"fraction of necrosis in tumors, course","[2]; 168 mM CaCl2, half tumor volume, electroporation, first days after treatment",progressive necrosis
same,tumor re-growth,[2]; 6 days after the treatment,re-growth
same,"tumor size (MRI, H&E)","[3]; 14 μl 168 mM calcium alone, no pulses, 6 days after the treatment",no effect on tumor size
same,"tumor (MRI, H&E)","[3]; 14 μl 168 mM calcium chloride with electroporation (32 pulses 100V), 8 days after the treatment",eliminated

# Reference: US9943599B2, “Therapeutic applications of calcium electroporation to effectively induce tumor necrosis” (Herlev Hospital, priority 2011, dated 2018)
